Test results published in patent US20220054543A1, “Enteric Use of Potassium Permanganate in Humans and Animals” (priority 2020, published 2022).

Test system: common human coronaviruses (229E, NL63, OC43, and HKU1)
Experiment: enteric administration to humans, treating common human coronavirus infections
Format: in vivo

Measured: effective in treating infections resulting from the common human coronaviruses

Potassium permanganate
effective: adult humans, inhalation by cold-mist inhaler or nebulizer, 3.0 ml of 1:10,000 dilution (0.1 mg/mL solution) per day for three days | adult humans, inhalation by cold-mist inhaler or nebulizer, 3.0 ml of 1:50,000 dilution (0.02 mg/mL solution) per day for three days | adult humans, inhalation by cold-mist inhaler or nebulizer, 3.0 ml of 1:100,000 dilution (0.01 mg/mL solution) per day for three days | humans, intravenous, 10.0 cc per 45.4 kg of 1:10,000 dilution (0.1 mg/mL solution) per day for three days | humans, intravenous, 10.0 cc per 45.4 kg of 1:50,000 dilution (0.02 mg/mL solution) per day for three days | humans, intravenous, 10.0 cc per 45.4 kg of 1:100,000 dilution (0.01 mg/mL solution) per day for three days | humans, oral, 1 mg/kg per day for three days | humans, oral, 1 mg/kg per day on a daily basis (prophylactic) | humans, oral, 5 mg/kg per day for three days | humans, oral, 10 mg/kg per day for three days
